Data as given in patent US7608726B2, “Substituted indolepyridinium as anti-infective compounds” (Tibotec Pharmaceuticals Ltd., priority 2002, dated 2009).

Tests used:
HIV mutant A (Y181C) = assay: Antiviral cellular assay, mutant HIV strain A; type: cell-based; settings: EC50 mutant/EC50 wild type, rounded to nearest integer
Description: (§1) HIV- or mock-infected MT4 cells were incubated for five days in the presence of various concentrations of the inhibitor. At the end of the incubation period, the replicating virus in the control cultures has killed all HIV-infected cells in the absence of any inhibitor. Cell viability was determined by measuring the concentration of MTT, a yellow, water soluble tetrazolium dye that is converted to a purple, water insoluble formazan in the mitochondria of living cells only. Upon solubilization of the resulting formazan crystals with isopropanol, the absorbance of the solution was monitored at 540 nm. The values correlate directly to the number of living cells remaining in the culture at the completion of the five day incubation. The inhibitory activity of the compound was monitored on the virus-infected cells and was expressed as EC50 and EC90. These values represent the amount of the compound required to protect 50% and 90%, respectively, of the cells from the cytopathogenic effect of the virus. […] Wherever results are reported as e.g. pEC50 or pCC50 values, the result is expressed as the negative logarithm of the result expressed as EC50 or CC50 respectively. […]
(§2) Row WT: pEC50 against wild type HIV-LAI strain. The toxicity (Tox) is expressed as the pCC50 value as determined with mock transfected cells. ND means not determined.

HIV mutant B (K103N) = assay: Antiviral cellular assay, mutant HIV strain B; type: cell-based; settings: EC50 mutant/EC50 wild type, rounded to nearest integer
Description: as §1, §2

[1] = system: HIV mutant C (L100I; K103N); assay: Antiviral cellular assay, mutant HIV strain C; type: cell-based; settings: EC50 mutant/EC50 wild type, rounded to nearest integer
Description: as §1, §2

[2] = system: HIV mutant D (L100I; K103N); assay: Antiviral cellular assay, mutant HIV strain D; type: cell-based; settings: EC50 mutant/EC50 wild type, rounded to nearest integer
Description: as §1, §2

HIV mutant E (F227C) = assay: Antiviral cellular assay, mutant HIV strain E; type: cell-based; settings: EC50 mutant/EC50 wild type, rounded to nearest integer
Description: as §1, §2

HIV mutant F (Y188L) = assay: Antiviral cellular assay, mutant HIV strain F; type: cell-based; settings: EC50 mutant/EC50 wild type, rounded to nearest integer
Description: as §1, §2

[3] = system: HIV mutant G (V106A, F227L); assay: Antiviral cellular assay, mutant HIV strain G; type: cell-based; settings: EC50 mutant/EC50 wild type, rounded to nearest integer
Description: as §1, §2

[4] = system: HIV mutant H (K103N, Y181C); assay: Antiviral cellular assay, mutant HIV strain H; type: cell-based; settings: EC50 mutant/EC50 wild type, rounded to nearest integer
Description: as §1, §2

[5] = system: HIV mutant I (K101E, K103N); assay: Antiviral cellular assay, mutant HIV strain I; type: cell-based; settings: EC50 mutant/EC50 wild type, rounded to nearest integer
Description: as §1, §2

[6] = system: HIV mutant J (131L, L100I, K103N, E138G, Y181C, L214F); assay: Antiviral cellular assay, mutant HIV strain J; type: cell-based; settings: EC50 mutant/EC50 wild type, rounded to nearest integer
Description: as §1, §2

[7] = system: HIV mutant K (multiple RT mutations, Table 1); assay: Antiviral cellular assay, mutant HIV strain K; type: cell-based; settings: EC50 mutant/EC50 wild type, rounded to nearest integer
Description: as §1, §2

HIV-2 = assay: Antiviral cellular assay, HIV-2; type: cell-based; settings: Human immunodeficiency virus 2; read-out: pEC50 towards HIV-2 (converted)
Description: HIV- or mock-infected MT4 cells were incubated for five days in the presence of various concentrations of the inhibitor. At the end of the incubation period, the replicating virus in the control cultures has killed all HIV-infected cells in the absence of any inhibitor. Cell viability was determined by measuring the concentration of MTT, a yellow, water soluble tetrazolium dye that is converted to a purple, water insoluble formazan in the mitochondria of living cells only. Upon solubilization of the resulting formazan crystals with isopropanol, the absorbance of the solution was monitored at 540 nm. The values correlate directly to the number of living cells remaining in the culture at the completion of the five day incubation. The inhibitory activity of the compound was monitored on the virus-infected cells and was expressed as EC50 and EC90. These values represent the amount of the compound required to protect 50% and 90%, respectively, of the cells from the cytopathogenic effect of the virus. […] Wherever results are reported as e.g. pEC50 or pCC50 values, the result is expressed as the negative logarithm of the result expressed as EC50 or CC50 respectively.
as §2

[8] = system: SIV (simian immunodeficiency virus); assay: Antiviral cellular assay, SIV; type: cell-based; settings: read-out: pEC50 towards SIV (converted)
Mycobacterium b. = assay: Specificity versus non-viral pathogens: Mycobacterium b.; type: cell-based
[9] = system: HIV-1 strain LAI in MT4 cells; assay: Time of addition experiment (p24 ELISA); type: cell-based; settings: 50 μM, MT4 cells infected with HIV-1 LAI
Description: A time of addition experiment was performed to determine the mechanism of action of the compounds of the present invention. In the time of addition experiment, compounds are added to cells that were infected with HIV, at time zero (Zero hours). The compounds are subsequently added at different points in time. The time point until which a compound can be added to prevent virus replication, provides an indication of the mechanism of action of the compound.
In the present experiment, MT4 cells were infected with HIV-1 strain LAI at time zero. In different experiments, compounds were subsequently added at the points in time indicated in the X-axis of FIG. 1 (in hours). The compounds were added at the following end concentrations during incubation: DS5000, 1 μM; efavirenz (EFV), 1 μM; saquinavir (SQV), 1 μM; Reference 1, 10 μM (Reference 1 is an integrase inhibitor selected from WO 99/62520 and is present in CAS database: 251963-93-6); Compound 2, 50 μM; Control: normalized virus production. The virus production was determined using p24 monitoring using a kit according to the manufacturers instructions (p24 ELISA kit, catalog reference NEK-050, Perkin Elmer).

[10] = target: T1, HIV reverse transcriptase (Human immunodeficiency virus type 1 group M subtype B, UniProt P04585); assay: In vitro inhibition of HIV reverse transcriptase (kit TRK 1022); type: biochemical; settings: enzyme assay, 4 hours at 37° C.
T1 construct: 5 μl HIV RT enzyme solution; purchased Amersham Life Sciences TRK 1022
Description: The assay was run using kit TRK 1022 (Amersham Life Sciences) according to the manufacturer's instructions with slight modifications. Compounds were diluted in steps of ¼ in 100% DMSO and subsequently transferred to Medium A (1/50 dilution; medium A: RPMI 1640+10% FetalClone II+Gentamycin 20 mg/L). 25 μl of compound (in 2% DMSO in Medium A) or 25 μl of 2% DMSO in medium A was added to wells. To each well was added 25.5 μl master mix (master mix: 5 μl primer/template beads, 10 μl assay buffer, 0.5 μl tracer (3H-TTP), 5 μl HIV RT enzyme solution at a final enzyme activity of 15 mU per 50 μl reaction, 5 μl medium A). The plates were sealed, marked as radioactive and incubated during 4 hours at 37° C. Subsequently, 100 μl stop solution was added to each well (except R1). The radioactivity was counted in a TopCount.

[11] = Microsomal metabolization, dog liver microsomes; type: in vitro ADME; settings: 10 μM, LC-MS
[12] = Microsomal metabolization, human liver microsomes; type: in vitro ADME; settings: for hepatic first pass metabolization (microsomal): liver microsomal fractions
Description: Aliquots of human liver microsomal fractions (prepared by centrifugation at 12000 g^−1) were transferred into 10 ml glass tubes that are immersed in ice. Subsequently, test compound was added to yield a final concentration of 10 μM test compound. After adding 500 μl of a co-factor solution (cofactor solution: 1 mg/ml glucose-6-phosphate, 1 mg/ml MgCl2.6H2O, 0.5 units/ml glucose-6-phosphate dehydrogenase in 0.5 M phohsphate buffer. pH 7.4), homogenisation buffer (homogenisation buffer: 1,15% KCl in 0.05 M phosphate buffer, pH 7.4) was added to give a final volume of 1 ml. The incubations, 30 or 120 minutes at 37° C., were initiated by adding 10 μl of a solution of nicontinamide adenine dinucleotide phosphate (1.25 mg/ml) in homogenisation buffer. After a preincubation during 5 minutes at 37° C., the tubes were continuously shaken at 100 oscillations/minute in a water bath. The reactions were terminated by addition of an equal volume of DMSO. Blank incubations containing boiled microsomal fractions were incubated under the same conditions as the drug incubations. The degree of metabolism was determined by direct measurement of the residual parent compound in the reaction mixture using LC-MS. In parallel, the residual anti-HIV activity in the reaction mixture was detected using a colorimetric anti-HIV assay as described in Pauwels et al. J. Virol. Methods 1988 (20) 309-321. The residual activity is defined as the percent difference in EC50 between the drug incubations and the blank incubations.
The amount of compound was determined using LC-MS at the time points indicated between brackets. The results are indicated as a % vis-à-vis the amount determined at the start of the experiment (time=0; normalized to 100%).

wild type HIV-LAI strain = assay: Antiviral cellular assay (MT4 cells, MTT), wild type HIV-1 strain LAI; type: cell-based; settings: Human immunodeficiency virus 1, MT4; read-out: EC50, inhibition of wild-type HIV-LAI strain
Description: The compounds of the present invention were examined for anti-viral activity in a cellular assay. […] The cellular assay was performed according to the following procedure.
HIV- or mock-infected MT4 cells were incubated for five days in the presence of various concentrations of the inhibitor. At the end of the incubation period, the replicating virus in the control cultures has killed all HIV-infected cells in the absence of any inhibitor. Cell viability was determined by measuring the concentration of MTT, a yellow, water soluble tetrazolium dye that is converted to a purple, water insoluble formazan in the mitochondria of living cells only. Upon solubilization of the resulting formazan crystals with isopropanol, the absorbance of the solution was monitored at 540 nm. The values correlate directly to the number of living cells remaining in the culture at the completion of the five day incubation. The inhibitory activity of the compound was monitored on the virus-infected cells and was expressed as EC50 and EC90. These values represent the amount of the compound required to protect 50% and 90%, respectively, of the cells from the cytopathogenic effect of the virus. The toxicity of the compound was measured on the mock-infected cells and was expressed as CC50, which represents the concentration of compound required to inhibit the growth of the cells by 50%. The selectivity index (SI) (ratio CC50/EC50) is an indication of the selectivity of the anti-HIV activity of the inhibitor. Wherever results are reported as e.g. pEC50 or pCC50 values, the result is expressed as the negative logarithm of the result expressed as EC50 or CC50 respectively.
As a measure of the broad spectrum activity of the present compounds, the EC50 was determined. […] The fold resistance rounded to the nearest integer is mentioned between brackets.
as §2

Row | Compound | fold resistance mutant A (between brackets) (HIV mutant A (Y181C)) | fold resistance mutant B (between brackets) (HIV mutant B (K103N)) | fold resistance mutant C (between brackets) [1] | fold resistance mutant D (between brackets) [2] | fold resistance mutant E (between brackets) (HIV mutant E (F227C)) | fold resistance mutant F (between brackets) (HIV mutant F (Y188L)) | fold resistance mutant G (between brackets) [3] | fold resistance mutant H (between brackets) [4] | fold resistance mutant I (between brackets) [5] | fold resistance mutant J (between brackets) [6] | fold resistance mutant K (between brackets) [7] | EC50 (HIV-2) [µM] | EC50 [8] [µM] | hepatic first pass metabolization (microsomal) [12] | EC50 (wild type HIV-LAI strain) [µM] | also measured
1 | N#Cc1cc2[nH]c3ccccc3c2n(-c2ccc([N+](=O)[O-])cc2)c1=O [Compound 1, 1-(4-nitrophenyl)-2-oxo-2,5-dihydro-1H-pyrido[3,2-b]indole-3-carbonitrile] | 8 | 4 | 8 | 3 | 6 | 4 | 2 | 5 | 3 | 5 | 1 | 6.31 | 7.94 |  |  | 
2 | Cn1c2ccccc2c2c1cc(C#N)c(=O)n2-c1ccc([N+](=O)[O-])cc1 [Compound 2, 5-methyl-1-(4-nitro-phenyl)-2-oxo-2,5-dihydro-1H-pyrido[3,2-b]indole-3-carbonitrile] | 4 | 1 | 3 | 2 | 3 | 2 | 3 | 5 | 3 | 5 | 4 | 0.251 | 0.316 | little or no hepatic first pass metabolization |  | EC50 (Mycobacterium b.): > 32 µM; time of addition: effect on virus production / mechanism [9]: delayed virus production using a mechanism related to reverse transcriptase; in vitro inhibition of HIV reverse transcriptase [10]: inhibits HIV reverse transcriptase in vitro; DLM (0 min) amount of compound ([11]; 0 min, normalized to 100% at time 0): 100%; DLM (30 min) amount of compound ([11]; 30 min, % of amount at time 0): 91%; DLM (120 min) amount of compound ([11]; 120 min, % of amount at time 0): 108%; HLM (0 min) amount of compound ([12]; 10 μM, 0 min, LC-MS, normalized to 100% at time 0): 100%; HLM (30 min) amount of compound ([12]; 10 μM, 30 min, LC-MS, % of amount at time 0): 98%; HLM (120 min) amount of compound ([12]; 10 μM, 120 min, LC-MS, % of amount at time 0): 128%
3 | N#Cc1cc2c(c3ccccc3n2CCN2CCCC2)n(-c2ccc([N+](=O)[O-])cc2)c1=O [Compound 13, 1-(4-Nitro-phenyl)-2-oxo-5-(2-pyrrolidin-1-yl-ethyl)-2,5-dihydro-1H-pyrido[3,2-b]-indole-3-carbonitrile] |  |  |  |  |  |  |  |  |  |  |  |  |  | little or no hepatic first pass metabolization | < 1 | 
4 | Cn1c2ccccc2c2c1cc(-c1noc(C(F)(F)F)n1)c(=O)n2-c1ccc([N+](=O)[O-])cc1 [Compound 72, 5-Methyl-1-(4-nitro-phenyl)-3-(5-trifluoromethyl-[1,2,4]oxadiazol-3-yl)-1,5-dihydropyrido[3,2-b]indol-2-one] |  |  |  |  |  |  |  |  |  |  |  |  |  |  | < 1 | 
5 | Cn1c2ccccc2c2c1cc(C(N)=O)c(=O)n2-c1ccc([N+](=O)[O-])cc1 [Compound 76] |  |  |  |  |  |  |  |  |  |  |  |  |  |  | 1 to 32 | 
